A melting point compilation (Tetko et al.; mined from patent text by program, amines drawn as free bases though some values may be those of a salt)

melting point [°C]	SMILES
160 to 162	COc1ccc(Sc2ccc3[nH]cc(C4CCN(C)CC4)c3c2)cc1
152 to 153	O=c1oc(-c2ccccc2)cc(O)c1S(=O)(=O)Cc1ccccc1
79 to 80	COC(=S)c1ccncc1Cc1ccccc1
160 to 162	N#Cc1c(-c2ccc(OCc3ccccc3)cc2)n(Cc2ccc(OCCCl)cc2)c2cccc(OCc3ccccc3)c12
58	C=C1CC(C=CC(O)CCCCC)C(O)(Cc2cccc(OCc3ccccc3)c2)C1 (centres undefined)
197 to 202	N#Cc1nn(-c2c(Cl)cc(-c3ccc(C(F)(F)F)cc3)cc2Cl)c(N)c1S(=O)(=O)C(F)(F)F
248 to 250	CCC(NC(=O)C(F)F)c1ccc(Cl)c2nc3n(c12)CCCN3c1ccc(Cl)cc1Cl (centres undefined)
142 to 143	O=C(O)Cc1cc(C(=O)c2ccc(Cl)cc2)sc1-c1ccccc1
143 to 144	COC(=O)[C@@H](NC(=O)c1ccc(C#Cc2ccc(C=O)cc2)cc1)[C@@H](C)O
181 to 183	COc1ccc2cc(C#CC(C)N(O)C(N)=O)ccc2c1 (centres undefined)
167 to 170	O=C1CC(=Cc2ccccc2)C(=O)O1
242 to 246	C=CCc1cc2c(c(CC=C)c1O)CCC(=O)N2Cc1ccc(C(=O)O)cc1
159 to 161	CCOC(=O)C1CCN(c2nc(C)nc3c2C(C)C(=O)N3c2c(C)cc(Br)cc2C)CC1 (centres undefined)
234 to 236	Cc1cccc(C(=O)Nc2cccc3c2C(=O)N(C2CCC(=O)NC2=O)C3=O)c1 (centres undefined)
218 to 219	CC(C)(C)OC(=O)N[C@@H](Cc1ccccc1)[C@@H](O)C[C@@H](Cc1ccc(O)cc1)C(=O)N[C@H]1c2ccccc2C[C@H]1O
110	CCOC(=O)c1ccc(NC=Nc2ccc3[nH]cc(CCN4C(=O)c5ccccc5C4=O)c3c2)cc1
280 to 284	COc1ccc2c(c1)Cc1cc(=O)[nH]nc1-2
132 to 134	COC(=O)C(C)n1nnc2ccc(O)cc21 (centres undefined)
90 to 93	Cc1cc2c(c(-c3cccc(Cl)c3)c1)OC(CN)C2 (centres undefined)
90 to 92	CCNC(=O)NCCC1CCc2ccc(OC)cc21 (centres undefined)
229 to 230	O=C(CN1C(=O)C2(COc3cc4c(cc32)CCO4)c2c(-c3cncnc3)cccc21)Nc1ccccc1F (centres undefined)
116	CCCCCCCCCCCCN(c1ccccc1)c1cccc2ccccc12
115 to 116	C=C1C(=O)CCC(C)(C)C1=O
143 to 146	CC1COCC(C)N1C(=O)N1Cc2c(-c3noc(C4CC4)n3)ncn2-c2ccc(F)cc21 (centres undefined)

melting point [°C]	SMILES
238 to 240	COn1cnc2c(N)nc3ccccc3c21
70	C=CCC1(c2ccccc2)OC(C(=O)OC)Oc2ccc(Cl)cc21 (centres undefined)
186 to 188	CC(C)n1nc(-c2c(-c3ccccc3)nc(Cl)c(N)c2Cl)ccc1=O
> 350	Cc1ncc(-c2nc3cc4c(cc3[nH]2)NC(=O)C4(C)C)cn1
204 to 208	CC(C)(C)NC(=O)N1CCn2c(c(C(N)=O)c(Br)c2C2CC2)C1
136 to 140	COc1ccc(CC2(C(=O)N[C@@H](Cc3ccc(NC(=O)c4c(Cl)cccc4Cl)cc3)C(=O)O)CCCCC2)cc1
203 to 205	COc1cc(C(O)C#Cc2cnc(N)nc2N)cc(OC)c1OC (centres undefined)
194 to 195	O=[N+]([O-])c1cc(Br)ccc1Nc1cccc(-n2ccnc2)n1
244 to 246	CN(C)S(=O)(=O)N(c1ccc(C(=O)Nc2ccc(Br)cc2)cc1)C1OC(=O)c2ccccc21 (centres undefined)
116 to 117	COC(=O)C1Cc2c(cccc2C(C)C)C(=O)CS1 (centres undefined)
121 to 122	N/C(=C1/Sc2ccccc2C1=O)c1ccccc1
115 to 116	COc1ccc(Nc2ccccc2C(=O)CS(C)=O)cc1 (centres undefined)
155 to 160	O=C(Oc1ccc(Cl)cc1[N+](=O)[O-])c1ccccc1O
252 to 254	Cc1nsc2ccc(-n3c(=O)c(Cl)c(C(F)(F)F)n(C)c3=O)cc12
62 to 63.5	CCCN(CCC)C(=O)n1cnc(S(=O)(=O)CC(C)C)n1
270 to 275	CC(CN(C)C)OC(=O)c1ccc(NC(=O)CCn2cnc3c(=O)[nH]cnc32)cc1 (centres undefined)
92 to 95	CCCCNC(=O)Cc1ccc2c(c1)c(Cc1ccc(C(=O)O)cc1OC)cn2C
142 to 144	Cc1ccc2cccc(OCc3c(Cl)ccc(S(=O)(=O)N(CCCCN)C(C)(C)C)c3Cl)c2n1
> 260	CC1(c2ccccc2)C2=C(COC2=O)Nc2cc3c(cc21)OCO3 (centres undefined)
160 to 161	CC(=O)N1CCN=C1Nc1cc(C)nn1-c1ccccc1C
171 to 172	CCCCc1ncc(/C=C(\Cc2ccc(N(C)C)cc2)C(=O)O)n1Cc1ccccc1Cl
81	Nc1cc(C(=O)N(Cc2ccccc2)Cc2ccccc2)ccc1OCc1ccccc1
111 to 112	COc1cc(Cn2cc(CCC(=O)O)c(-c3ccccc3)c2)cc(OCc2csc(-c3cnccn3)n2)c1
56 to 57	CCOC(=O)CC(=O)Nc1sc(CC)cc1C(=O)c1ccccc1Cl

melting point [°C]	SMILES
198	COc1cc(OC)c(S(C)(=O)=O)cc1C(=O)NCC1CCCN1C1CCCC1 (centres undefined)
7.16	CCCCCCCCOc1ccc(-c2ncc(Br)cn2)c(F)c1
48 to 51	CCC(C(=O)N(C)C)n1ccc(-c2ccccc2C)n1 (centres undefined)
51 to 52	CSc1ccc(-c2ccccc2)c([N+](=O)[O-])c1
155 to 157	COC(=O)N(C1c2ccccc2-c2ccccc21)[C@H]1[C@H](C(=O)O)C[C@H]2C[C@@H]1C2(C)C
> 200	C[C@@](N)(Cc1ccc(OC(F)(F)F)cc1)C(=O)Nc1cc(Cl)cc(Cl)c1
116 to 118	COC(=O)/C=C1\CCc2cc(C(C)(C)C)ccc21
108	O=c1cc(N2CCOCC2)nc2n1CC[C@@H](C(F)(F)F)N2
89 to 90	COc1ccc2c(c1)C(=NOCCCN)c1c-2c(N2CCNCC2)nc2ccccc12
96 to 98	COc1ccccc1NS(=O)(=O)c1ccc([N+](=O)[O-])cc1
217 to 219	CC(=O)NCCCCn1cnc2c(N)nc(C)c(C)c21
127 to 130	COC(=O)CCc1cc2cc(F)c(Cl)cc2n1S(=O)(=O)c1ccccc1
258 to 263	Cc1cc(C#N)c(=O)[nH]c1C
196	OC1CSC(Oc2ccccc2-c2nc3ccccc3s2)C(O)C1O (centres undefined)
83 to 85	Nc1ccc(C(=O)c2ccccc2)cc1F
123 to 125	CCN(CC)C(=O)COc1ccc(CCC(=O)NS(=O)(=O)CCC(C)C)c(Oc2ncc(C(F)(F)F)cc2Cl)c1
227 to 228	Cc1[nH]c(=O)ccc1C(=O)c1cccs1
189	CN(C)n1cnnc1NN=Cc1c(Cl)cccc1Cl
219 to 220	c1ccc2c(c1)Cc1c(-c3ccsc3)n[nH]c1-2
165 to 180	COCCN1CCc2ccc(Nc3ncc(Cl)c(Nc4ccccc4C(=O)NC4CC4)n3)cc2CC1
140 to 143	CCOC(=O)N1CCCOc2cc(N)ccc21
158 to 160	CC(C)Oc1c(-c2ccc(S(N)(=O)=O)cc2)cnn(CC(F)(F)F)c1=O
115 to 117	COc1ccc2c(c1)c(CC(=O)Oc1cccc(CO[N+](=O)[O-])c1)c(C)n2C(=O)c1ccc(Cl)cc1
180 to 183	CCCCCCOC(=O)Nc1ccc2c(c1)NC(=O)C2(C)C

melting point [°C]	SMILES
106 to 109	COC1(C)Oc2cccc(O)c2O1 (centres undefined)
155 to 157	CCC(C)n1cc(Cl)nc(N2CCc3cc(OC)cc(Br)c32)c1=O (centres undefined)
181 to 182	CCCCc1nc(Cl)c(Cl)n1Cc1ccc(-n2cccc2C(=O)O)cc1
192	O=C(NC(=O)c1ccccc1Cl)Nc1cc(C(F)(F)F)c(F)cc1Br
51 to 53	C[Si](C)(Cn1ccnc1)c1ccc(-c2ccccc2)cc1
63 to 65	O=C(O)C/C(C(=O)O)=C(\CCCCCCCCCCCCCCCCOS(=O)(=O)O)C(=O)O
> 305	N#Cc1cnc2c(sc3ccc([N+](=O)[O-])cc32)c1O
328 to 335	CC(C)C(=O)Oc1n[nH]c(=O)c2nc3cc(Cl)ccc3c(O)c12
160 to 162	COc1ccc2c(c1)S(=O)(=O)N=CN2CCO
68	[N-]=[N+]=NS(=O)(=O)c1ccc(C(=O)Cl)cc1
224 to 226	CN(C)c1cc(Cl)c2c(c1)NC(=O)C(C)(c1ccccc1)C2=O (centres undefined)
73 to 74.5	CCOC(=O)C(Cc1ccccc1CCCBr)(NC(C)=O)C(=O)OCC
147 to 148	O=C1C(=Cc2cccc3ccccc23)CCc2cc(OCCn3ccnc3)ccc21
90 to 94	Cn1c(SC(Cl)=C(Cl)C#N)nnc1C(F)(F)F
119 to 122	CCN1C(=O)C(C)(C)C(=O)N(C)c2cc(CN(CCn3ccc4sccc4c3=O)Cc3cccnc3COC)ccc21
139 to 140	CC(C)S(=O)(=O)O[C@H]1C[C@@H](C(=O)O)N(C(=O)c2ccccc2Br)C1
187 to 188	CCOC(=O)c1cn([C@@H]2C[C@@H]2F)c2c(C)c(F)ccc2c1=O
265 to 268	CCOC(=O)C(O)C1OC(n2cnc3c(N)ncnc32)C(O)C1O (centres undefined)
141 to 142	COc1ccc2cc([C@H](C)C(=O)Oc3ccc(OCCO[N+](=O)[O-])cc3)ccc2c1
250	COc1ccc(CNc2nc(-c3ccc(C(=O)O)cc3)nc3sc(C(F)(F)F)cc23)cc1OC
91 to 92.5	COc1ccc2c(c1)CCC1C2CCC2(C)C(OC(C)(C)C)CCC12 (centres undefined)

SMILES	melting point [°C]
CN1CCC23CC(=O)C=CC2C1Cc1cccc(Oc2nnnn2-c2ccccc2)c13 (centres undefined)	172 to 174
N#CC1(Nc2ccc(Cl)c(Cl)c2)CCN(C(=O)c2cc(C(F)(F)F)cc(C(F)(F)F)c2)CC1	195 to 197
CC12CCC3C4CCC(=O)C=C4CC(CCCCCCCCCCCO[Si](C)(C)C(C)(C)C)C3C1CCC2=O (centres undefined)	65
CCC12CCC3C4CCC(=O)C=C4CCC3C1CCC2O (centres undefined)	147 to 149
C=CCN1C(=O)N(c2ccc([N+](=O)[O-])c(C(F)(F)F)c2)C(=O)C1(C)C	105
O=P(O)(O)C1CCCN1 (centres undefined)	275 to 280
